# In patent US12466819B2, “Tricyclic compounds with OMA1/OPA1 modulatory properties” (712 North Inc., priority 2019, dated 2025):
# Entries after “also recorded” stand apart in the source; their conditions may differ. Like-named read-outs stand apart in the source and are kept apart here.
# What was measured:
# [1] = tested on: mitochondrial membrane potential Δψ; assay: TMRE live-cell assay in 293T cells; conditions: for impact on mitochondrial membrane potential Δψ (TMRE signal): overnight (18 hours), different compound concentrations
# Protocol: (§2) The mitochondrial inner membrane potential Δψ was measured with a cellular TMRE-assay, in which a reduction of Δψ results in a reduced TMRE signal (see insert in A). […] A: Vehicle only. […] D: compound VII. E: compound IV. F: compound V.
# (§3) It is well established in the art that CCCP can lower the mitochondrial membrane potential Δψ. […] 293T cells were cultured overnight with different compound concentrations after which TMRE fluorescence was measured with a fluorescence plate-reader (FIG. 10).
# [2] = target: T1, OMA1 protease (OPA1 cleavage) (Homo sapiens, UniProt Q96E52); assay: OPA1 cleavage / OMA1 activation in 293T cells by OPA1 Western blotting; type: cell-based; conditions: for critical CCCP concentration (threshold-level) for L-OPA1 cleavage after preincubation with compound: 30 μM compound for 60 minutes; for OPA1 cleavage by compound alone, 100 μM: 100 μM (up to 100 μM for VI); for OPA1 cleavage with compound plus 1 μM CCCP: 60 minutes compound (30 μM MMP2/9 inhibitor IV, 300 μM temozolomide, 100 μM amoxapine), then 1 μM CCCP for 30 minutes
# T1 construct: endogenous in cells; host or cells: 293T cells
# T1 sequence (Q96E52 144-524): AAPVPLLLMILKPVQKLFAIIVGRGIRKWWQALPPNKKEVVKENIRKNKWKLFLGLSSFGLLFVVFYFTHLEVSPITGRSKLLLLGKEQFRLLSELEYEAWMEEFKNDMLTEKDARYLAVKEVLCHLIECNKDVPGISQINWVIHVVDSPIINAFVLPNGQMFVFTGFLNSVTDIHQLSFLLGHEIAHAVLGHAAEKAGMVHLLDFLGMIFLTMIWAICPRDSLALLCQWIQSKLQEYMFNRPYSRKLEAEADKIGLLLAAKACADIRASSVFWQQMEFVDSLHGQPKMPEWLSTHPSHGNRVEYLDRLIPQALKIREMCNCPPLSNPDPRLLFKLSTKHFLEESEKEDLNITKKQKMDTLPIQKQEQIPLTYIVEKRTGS
# Protocol: FIG. 6. A: 293T cells were treated with 0 μM, 1 μM, 2 μM, 3 μM, 4 μM, or 5 μM CCCP for 30 minutes after which OPA1 was analyzed by Western blotting. […] E: OPA1 cleavage in Neuro2A cells treated with 30 μM of the indicated agents for 90 minutes (60 min preincubation plus 30 min of CCCP).
# FIG. 7. Compounds of present invention can lower CCCP-levels for OMA1 activation gauged by OPA1 cleavage in Western blots. A-C: 293T cells were treated with the denoted concentrations of compound VII, IV and V for 60 minutes before CCCP was added for an additional 30 minutes. D-E: 293T cells were treated with the denoted concentrations of compound VII, IV and V for 6 hours before CCCP was added for an additional 30 minutes.
# FIG. 11. A: A likely binding pose of a compound of present invention illustrates aspects of the drug-target interaction. B: 293T cells were treated with the denoted concentrations of compound for 90 minutes before cells were harvested and analyzed by OPA1 Western blotting. C: 293T cells were treated with the denoted concentrations of compound VI for 60 minutes and another 30 minutes with 1 μM CCCP before cells were harvested and analyzed by OPA1 Western blotting.
# (§1) A nonlimiting example of a method of testing compounds for their efficacy to induce OPA1-cleavage and/or OMA1 activation is provided in FIG. 1, for which human 293T cells or mouse Neuro2A cells were treated with different agents and subsequently tested for OPA1-hydrolysis by Western blotting. […] OPA1 cleavage in these experiments is OMA1 dependent, because knock-down of the protease preserved L-OPA1 (FIG. 1B & 1C).
# A nonlimiting example illustrates specific features of certain compounds disclosed herein and teaches how potency of such compounds can be further improved. To this end, compound were analyzed for their potential to lower threshold-levels for OPA1 cleavage and/or OMA1 activation using the methods described in Example 3. In one example, L-OPA1 was cleaved in untreated 293T cells at concentrations ≥5 μM CCCP (FIG. 6A, top panel). […] Preincubation with 30 μM MMP2 inhibitor II (CAS #869577-51-5) lowered the threshold-level even further to about 1 μM CCCP (FIG. 6C, bottom panel). The skilled artisan can recognize how (and the not-so-skilled artisan certainly appreciates that) substitutions and modifications of the thiirane-opposed end of the molecule increased potency.
# [3] = target: T2, OMA1 protease (OPA1 cleavage) (Mus musculus, UniProt Q9D8H7); assay: OPA1 cleavage in Neuro2A cells by OPA1 Western blotting; type: cell-based; conditions: 100 μM sorafenib; for OPA1 cleavage after 30 minutes: 5 μM CCCP, 1 μM valinomycin; for OPA1 cleavage after 3 hours: 100 μM trichostatin A
# T2 construct: endogenous in cells; host or cells: Neuro2A cells
# T2 sequence (Q9D8H7 140-521): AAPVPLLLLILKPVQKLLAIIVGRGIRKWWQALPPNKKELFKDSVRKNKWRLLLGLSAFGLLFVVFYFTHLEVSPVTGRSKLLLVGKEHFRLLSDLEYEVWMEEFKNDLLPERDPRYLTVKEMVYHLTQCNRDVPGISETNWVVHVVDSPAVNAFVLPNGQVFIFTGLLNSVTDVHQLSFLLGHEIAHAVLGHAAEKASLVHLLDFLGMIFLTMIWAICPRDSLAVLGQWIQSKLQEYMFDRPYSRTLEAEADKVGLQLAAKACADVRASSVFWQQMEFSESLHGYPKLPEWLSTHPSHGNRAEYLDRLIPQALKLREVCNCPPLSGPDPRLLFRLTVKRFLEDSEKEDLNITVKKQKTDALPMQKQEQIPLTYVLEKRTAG
# Source text: FIG. 1. A: The YME1L1 protease regulates the OPA1 ratios under physiological conditions (a). The OMA1 protease converts all OPA1 isoforms to S-OPA1 under conditions broadly defined as stress conditions (b). […] OMA1 knock-down could prevent OPA1 hydrolyses in these experiments. C: Quantification of OMA1 protein levels in Western blots upon OMA1 knock-down (mean±S.D.; p≤0.05; n=3). D: Different chemicals and combinations of chemicals altered the OPA1 ratios in 293T cells. E: Neuro2A cells were treated with the indicated agents for 30 minutes or 3 hours, respectively.
# as §1
# Another example is provided in FIG. 1E, for which Neuro2A cells were treated with different reagents for 30 minutes or 3 hours prior to the assessment of OPA1 by Western blotting. Some compounds acted faster while others were slower in altering the OPA1 ratios. […] Trichostatin A had no effect even after 3 hours of treatment. […] In certain embodiments, a pharmaceutical composition comprising an effective amount of sorafenib or a derivate, a prodrug or a pharmaceutical acceptable salt thereof and an effective amount of temozolomide or a derivate, a prodrug or a pharmaceutical acceptable salt thereof is administered to a subject with cancer.
# [4] = target: T3, OMA1 (Homo sapiens, UniProt Q96E52); assay: Luciferase-based cellular reporter of enzymatic OMA1 activity in 293T cells; type: cell-based; conditions: 293T reporter cells; for OMA1 activation without stress-stimulus at 40 μM: overnight, no CCCP or valinomycin
# T3 construct: 293T cells stably transfected with the reporter enzyme were incubated with increasing concentrations of a compound and 30 nM valinomycin; endogenous in cells; host or cells: 293T cells stably transfected with a luciferase-based reporter enzyme (only the reporter is transfected, not OMA1)
# T3 sequence (Q96E52 144-524): T1 sequence (Q96E52 144-524)
# Protocol: FIG. 8. 293T cells expressing a luciferase-based cellular reporter were incubated for 1 hour with increasing concentrations of the denoted compounds in cell culture media with 30 nM valinomycin before luciferase substrate was added and light emission measured. OMA1 activity decreases the light signal of the reporter in this assay. A: Vehicle only. […] C: amoxapine. D: compound VII. E: compound IV. F: compound V.
# FIG. 9. 293T cells expressing a luciferase-based cellular reporter were incubated overnight with increasing concentrations of the denoted compounds. Luciferase substrate was added the next day and light emission measured. A: Vehicle only. […] C: amoxapine. D: compound VII. E: compound IV. F: compound V.
# The following non-limiting examples illustrate some aspects of the mechanism of action of the compounds disclosed herein. An alternative method of measuring enzymatic OMA1 activity makes use of a luciferase-based cellular reporter, which can be transiently or stably expressed in eukaryotic cells. In this assay, OMA1 cleaves the reporter enzyme upon activation and thereby obliterates the luciferase signal. 293T cells stably transfected with the reporter enzyme were incubated with increasing concentrations of a compound and 30 nM valinomycin. Valinomycin is known in the art to induce OPA1 cleavage (see, for example, Head B., et al. “Inducible proteolytic inactivation of OPA1 mediated by the OMA1 protease in mammalian cells.” J Cell Biol. 2009; 187(7):959-66, as well as FIG. 1E). […] This specific example illustrates how compounds of present invention can activate OMA1 under conditions that would otherwise not lead to OMA1 activation. This example also provides an independent validation of the results obtained by Western blotting.
# Incubation time is a variable of OMA1 activation for certain compounds (see, for example, sorafenib in FIG. 1E). To investigate whether compounds of present disclosure would activate OMA1 in the absence of a stress-stimulus such as CCCP or valinomycin, reporter cells were incubated with increasing compound concentrations overnight (FIG. 9). […]
# [5] = tested on: mitochondrial membrane potential Δψ
# Protocol: as §2, §3
# [6] = 293T cells, then CCCP for another 30 minutes
# [7] = cells treated 60 minutes with compound, then CCCP for another 30 minutes
# [8] = 293T cells, pre-incubation of 6 hours before CCCP for an additional 30 minutes
# [9] = 293T cells, 90 minutes, absence of CCCP
smiles,measurement,setting,value
"C=CCSc1ccc2c(c1)C(=O)Nc1ccccc1O2 [IV, 2-(allylthio)dibenzo[b,f][1,4]oxazepin-11(10H)-one]",impact on mitochondrial membrane potential Δψ (TMRE signal),[1],only little impact on Δψ
N#CC(C#N)=NNc1cccc(Cl)c1 [CCCP],OPA1 cleavage by 1 μM CCCP alone,"[2]; 293T cells, 1 μM CCCP, 30 minutes",did not induce OPA1 cleavage
same,L-OPA1 cleavage by 10 μM CCCP,"[2]; 293T cells, 10 μM CCCP, 30 minutes",resulted in L-OPA1 cleavage
same,CCCP concentration at which L-OPA1 was cleaved,"[2]; untreated 293T cells, CCCP 30 minutes",≥ 5 µM
same,OPA1 cleavage after 30 minutes,[3],enough to induce OPA1 cleavage
same,TMRE signal with 0.6 μM CCCP,[1]; 0.6 μM CCCP,significantly reduced the TMRE signal
CS(=O)(=O)Nc1ccc(Oc2ccc(S(=O)(=O)CC3CO3)cc2)cc1 (stereo not drawn) [MMP2 inhibitor II],critical CCCP concentration (threshold-level) for L-OPA1 cleavage after preincubation with compound,[2]; [6],about 1 μM
same,effective dose (OPA1 cleavage),[2]; [7],about 30 μM
CNC(=O)c1cc(Oc2ccc(NC(=O)Nc3ccc(Cl)c(C(F)(F)F)c3)cc2)ccn1 [sorafenib],OPA1 cleavage after 30 minutes,[3],only little effect
same,OPA1 cleavage after 3 hours,[3],L-OPA1 was completely converted
C=CCSc1ccc2c(c1)C(N1CCNCC1)=Nc1ccccc1O2 [VII],OPA1 cleavage at the tested concentrations after extended pre-incubation,[2]; [8],did result in OPA1 cleavage
same,effective dose (OPA1 cleavage),[2]; [7],about 10 μM
same,increase of potency compared to amoxapine,[2]; from effective doses in 293T cells,about 3 fold
same,OMA1 activation without stress-stimulus at 40 μM,[4],OMA1 activation was noted
same,impact on mitochondrial membrane potential Δψ (TMRE signal),[1],only little impact on Δψ
Clc1ccc2c(c1)C(N1CCNCC1)=Nc1ccccc1O2 [amoxapine],"OPA1 cleavage by compound alone, 100 μM",[2]; [9],no effect on OPA1 cleavage; also recorded: no perceptible effects
same,OPA1 cleavage with compound plus 1 μM CCCP,[2]; 293T cells,OPA1 cleavage was observed
same,OMA1 activation without stress-stimulus at 40 μM,[4],OMA1 activation was noted
same,impact on mitochondrial membrane potential Δψ (TMRE signal),[1],only little impact on Δψ
"CC(/C=C/C(=O)NO)=C\[C@@H](C)C(=O)c1ccc(N(C)C)cc1 [Trichostatin A, trichostatin A]",OPA1 cleavage after 3 hours,[3],no effect
CC(C)[C@@H]1NC(=O)[C@H](C)OC(=O)[C@@H](C(C)C)NC(=O)[C@@H](C(C)C)OC(=O)[C@H](C(C)C)NC(=O)[C@H](C)OC(=O)[C@@H](C(C)C)NC(=O)[C@@H](C(C)C)OC(=O)[C@H](C(C)C)NC(=O)[C@H](C)OC(=O)[C@@H](C(C)C)NC(=O)[C@@H](C(C)C)OC1=O [valinomycin],OPA1 cleavage after 30 minutes,[3],enough to induce OPA1 cleavage
same,effect of 30 nM valinomycin alone on reporter signal,"[4]; 1 hour, 30 nM valinomycin, vehicle only",only little effects
O=C1Nc2ccccc2Oc2ccc(S(=O)(=O)CC3CO3)cc21 (stereo not drawn) [Compound V],efficacy in OPA1 cleavage in the presence of CCCP,"[2]; 293T cells, 60 minutes compound, then CCCP 30 minutes",some efficacy; also recorded: overall little activity
same,OPA1 cleavage at the tested concentrations after extended pre-incubation,[2]; [8],did result in OPA1 cleavage
same,potency (effective dose) after extended pre-incubation,[2]; [8],about 1 μM
same,impact on mitochondrial membrane potential Δψ (TMRE signal),[1],only little impact on Δψ
O=S(=O)(CC1CS1)c1ccc(Oc2ccccc2)cc1 (stereo not drawn) [MMP2/9 inhibitor IV],critical CCCP concentration (threshold-level) for L-OPA1 cleavage after preincubation with compound,[2]; [6],about 2 μM
same,"OPA1 cleavage by compound alone, 30 μM","[2]; 293T cells, 30 μM, 90 minutes, absence of CCCP",did not induce OPA1 cleavage
same,"OPA1 cleavage by compound alone, 100 μM",[2]; [9],no effects on L-OPA1
same,OPA1 cleavage with compound plus 1 μM CCCP,[2]; 293T cells,led to OPA1 cleavage
same,impact on mitochondrial membrane potential Δψ (TMRE signal),[5],only little impact on Δψ
O=C1Nc2ccccc2Oc2ccc(S(=O)(=O)CC3CS3)cc21 (stereo not drawn) [Compound VI],conversion of L-OPA1 isoforms at 300 nM,"[2]; 293T cells, 300 nM compound, presence of 1 μM CCCP",fully convert all L-OPA1 isoforms
same,"OPA1 cleavage by compound alone, 100 μM",[2]; [9],did not induce OPA1 cleavage
same,effective dose (OPA1 cleavage),"[2]; 293T cells, 60 minutes compound, another 30 minutes with 1 μM CCCP",300 nM
same,effective dose better than compound IV,"[2]; 293T cells, with CCCP",10 times
same,more potent in inducing OPA1 hydrolysis than MMP2/9 inhibitor IV or amoxapine,"[2]; 293T cells, with CCCP",100 times
